In patent publication US7615361B2, “Toxicity screening methods” (Ceetox, Inc., priority 2006, dated 2009):

Tests used:
[1] = tested on: rat cardiomyocytes; assay: MemTox membrane leakage (AK / α-GST); format: cell-based; conditions: rat, 24 hr
How it was run: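 Neonatal rat cardiomyocytes were dosed, and the culture medium was collected at the end of exposure to measure total leaked adenylate kinase (luminescence) and/or α-GST (ELISA, 450/650 nm). Percent dead cells was set against 1 mM digitonin as maximum release, then converted to percent live. Values are means of n=3-7.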

[2] = tested on: H4IIE cells; assay: MemTox membrane leakage (AK / α-GST); format: cell-based, rat; conditions: rat, 24 h
How it was run: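 H4IIE rat hepatoma cells were exposed to compound diluted in complete culture medium. Leakage of adenylate kinase (luminescence) and/or α-GST (ELISA, 450/650 nm) was measured in the medium collected at the end of exposure. Percent live cells was computed relative to 1 mM digitonin-treated maximum release, as means of n=3-7.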

Structure (SMILES): COc1cccc2c1C(=O)c1c(O)c3c(c(O)c1C2=O)C[C@@](O)(C(=O)CO)C[C@@H]3O[C@H]1C[C@H](N)[C@H](O)[C@H](C)O1 [ADRIAMYCIN, Adriamycin]
- more potent in the heart cells than in liver cells (cell death as marker) [1]: about 2.5 fold
- less toxic in liver cells than in the cardiomyocytes (TC50 for membrane integrity) [2]: approximately 5 fold
